From ChEMBL document CHEMBL5137046, “Discovery of novel 2,3-dihydro-1H-inden-1-ones as dual PDE4/AChE inhibitors with more potency against neuroinflammation for the treatment of Alzheimer's disease” (Eur J Med Chem, 2022) come the findings set out here.

By inhibition is commonly meant the share of the control response that was lost under treatment. The term IC50 denotes the concentration that gives 50% inhibition.

Calls of active or inactive are those of the source. The rule behind the calls is not given here.

The target in data set [1] is T1, 3',5'-cyclic-AMP phosphodiesterase 4D (Homo sapiens, UniProt Q08499). The data set is described as follows: Inhibition of PDE4D7 (unknown origin) at 10 uM.
In data set [2] the target is Acetylcholinesterase (Electrophorus electricus, UniProt O42275). The data set is described as follows: Inhibition of electric eel AChE using acetylthiocholine iodide as substrate preincubated with enzyme for 20 mins followed by substrate addition and measured after 10 mins by Ellman's method.
Data set [3] has as its target Acetylcholinesterase (Electrophorus electricus) (UniProt O42275). Briefly: Inhibition of electric eel AChE using acetylthiocholine iodide as substrate at 10 uM preincubated with enzyme for 20 mins followed by substrate addition and measured after 10 mins by Ellman's method. Particulars: time 30.0 min. Background: Ellman's reagent forms a yellow product with free thiols.

Data set [4] deals with T1, 3',5'-cyclic-AMP phosphodiesterase 4D. The data set is described as follows: Inhibition of PDE4D7 (unknown origin).
In data set [5] the test system is PC-12. Briefly: Neuroprotective activity against rat PC-12 cells assessed as inhibition of Abeta(25-35)-induced cytotoxicity by measuring increase in cell viability at 10 uM incubated for 24 hrs by MTT assay. Format: functional, cell-based.
For data set [6], the target named is Acetylcholinesterase (Electrophorus electricus) (UniProt O42275). The data set is described as follows: Inhibition of electric eel AChE using acetylthiocholine iodide as substrate at 1 uM preincubated with enzyme for 20 mins followed by substrate addition and measured after 10 mins by Ellman's method. Particulars: time 30.0 min.
Data set [7] concerns the target High affinity cAMP-specific and IBMX-insensitive 3',5'-cyclic phosphodiesterase 8A (Homo sapiens, UniProt O60658). Briefly: Inhibition of PDE8A1 (unknown origin).
In data set [8] the test system is PC-12. Briefly: Neuroprotective activity against rat PC-12 cells assessed as inhibition of Abeta(25-35)-induced cytotoxicity by measuring increase in cell viability at 10 to 20 uM incubated for 24 hrs by MTT assay. The format is functional, cell-based. Particulars: dose 10-20 µM. A general note: Tetrazolium assays rely on reduction of a dye to a coloured formazan, in cell work by metabolically active cells.

Data set [9] has as its system BV-2. Briefly: Anti-neuroinflammatory activity against LPS-stimulated mouse BV-2 cells assessed as reduction in TNF-alpha production pretreated for 1 hr with compound followed by LPS treatment for 24 hrs by ELISA. Format: functional, cell-based. Particulars: dose 5-20 µM, time 25.0 hrs, DDE = dose-dependent effect. For orientation: ELISA stands for enzyme-linked immunosorbent assay.

Data set [10] deals with Mus musculus. The data set is described as follows: Anti-neuroinflammatory activity against aggregated Abeta(25-35)-induced Alzheimer's disease C57BL/6 mouse model assessed as inhibition of TNF-alpha production in hippocampus at 2 mg/kg, iv measured after 2 hrs by ELISA. The format is functional, organism-based.
Data set [11] deals with High affinity 3',5'-cyclic-AMP phosphodiesterase 7A (Homo sapiens, UniProt Q13946). The data set is described as follows: Inhibition of PDE7A (unknown origin).
In data set [12] the target is Cholinesterase (Equus caballus, UniProt P81908). The data set is described as follows: Inhibition of horse serum BuChE using butyrylthiocholine iodide as substrate preincubated with enzyme for 20 mins followed by substrate addition and measured after 10 mins by Ellman's method. The format is cell-free.
The target in data set [13] is Acetylcholinesterase (Electrophorus electricus) (UniProt O42275). The data set is described as follows: Potency index, ratio of donepezil IC50 to test compound IC50 for inhibition of electric eel AChE using acetylthiocholine iodide as substrate preincubated with enzyme for 20 mins followed by substrate addition and measured after 10 mins by Ellman's method. Particulars: time 30.0 min.

Data set [14] addresses cGMP-inhibited 3',5'-cyclic phosphodiesterase 3B (Homo sapiens, UniProt Q13370). Briefly: Inhibition of PDE3B (unknown origin).
Data set [15] concerns BV-2. Briefly: Cytotoxicity against mouse BV-2 cells assessed as reduction in cell viability at 20 uM by MTT assay. Format: toxicity, cell-based. Particulars: bv-2, 20 µM.
Data set [16] concerns the target High affinity cGMP-specific 3',5'-cyclic phosphodiesterase 9A (Homo sapiens, UniProt O76083). The data set is described as follows: Inhibition of PDE9A2 (unknown origin).
In data set [17] the target is Dual specificity calcium/calmodulin-dependent 3',5'-cyclic nucleotide phosphodiesterase 1A (Homo sapiens, UniProt P54750). Briefly: Inhibition of PDE1A (unknown origin).
Data set [18] can be described thus: Neurotoxicity against rat PC-12 cells assessed as reduction in cell viability up to 20 uM incubated for 24 hrs by MTT assay. The format is toxicity, cell-based. Particulars: pc-12, 24 h.
The test system of data set [19] is BV-2. The data set is described as follows: Anti-neuroinflammatory activity against LPS-stimulated mouse BV-2 cells assessed as reduction in TNF-alpha production at 20 uM pretreated for 1 hr with compound followed by LPS treatment for 24 hrs by ELISA. Particulars: time 25.0 hrs. Format: functional, cell-based.
In data set [20] the test system is Mus musculus. Briefly: In vivo inhibition of AChE in hippocampus of aggregated Abeta(25-35)-induced Alzheimer's disease C57BL/6 mouse model at 2 mg/kg, iv measured after 2 hrs by Ellman's method. The format is functional, organism-based.
A short description of data set [21]: Inhibition of […] (unknown origin). Set-up: species or system Homo sapiens.
In data set [22] the target is cGMP-dependent 3',5'-cyclic phosphodiesterase (Homo sapiens, UniProt O00408). Briefly: Inhibition of PDE2A (unknown origin).
Data set [23] has as its target cGMP-specific 3',5'-cyclic phosphodiesterase (Homo sapiens, UniProt O76074). The data set is described as follows: Inhibition of PDE5A (unknown origin).
Data set [24] relates to Mus musculus. Briefly: Anti-neuroinflammatory activity against aggregated Abeta(25-35)-induced Alzheimer's disease C57BL/6 mouse model assessed as inhibition of TNF-alpha production in hippocampus at 1 mg/kg, iv measured after 2 hrs in presence of 1 mg/kg, iv rolipram by ELISA. The format is functional, organism-based.

Chain of Acetylcholinesterase (Electrophorus electricus) (O42275 24-633 limits assumed): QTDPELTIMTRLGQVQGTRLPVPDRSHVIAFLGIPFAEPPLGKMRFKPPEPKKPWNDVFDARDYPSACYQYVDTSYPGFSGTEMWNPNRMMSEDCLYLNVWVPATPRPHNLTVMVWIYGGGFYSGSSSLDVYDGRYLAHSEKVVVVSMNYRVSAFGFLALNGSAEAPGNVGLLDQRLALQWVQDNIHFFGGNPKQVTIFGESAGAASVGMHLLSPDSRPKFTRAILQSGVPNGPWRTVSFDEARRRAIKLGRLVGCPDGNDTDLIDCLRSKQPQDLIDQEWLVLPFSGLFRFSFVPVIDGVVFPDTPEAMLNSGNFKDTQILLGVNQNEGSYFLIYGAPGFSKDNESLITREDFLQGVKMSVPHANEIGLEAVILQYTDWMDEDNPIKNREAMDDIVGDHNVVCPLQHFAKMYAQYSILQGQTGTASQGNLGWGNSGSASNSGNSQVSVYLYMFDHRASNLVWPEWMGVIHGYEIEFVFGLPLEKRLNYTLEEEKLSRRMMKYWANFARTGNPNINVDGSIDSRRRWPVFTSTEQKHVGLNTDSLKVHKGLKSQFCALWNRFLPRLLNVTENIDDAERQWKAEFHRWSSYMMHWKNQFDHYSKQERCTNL
Chain of Acetylcholinesterase (O42275 whole entry): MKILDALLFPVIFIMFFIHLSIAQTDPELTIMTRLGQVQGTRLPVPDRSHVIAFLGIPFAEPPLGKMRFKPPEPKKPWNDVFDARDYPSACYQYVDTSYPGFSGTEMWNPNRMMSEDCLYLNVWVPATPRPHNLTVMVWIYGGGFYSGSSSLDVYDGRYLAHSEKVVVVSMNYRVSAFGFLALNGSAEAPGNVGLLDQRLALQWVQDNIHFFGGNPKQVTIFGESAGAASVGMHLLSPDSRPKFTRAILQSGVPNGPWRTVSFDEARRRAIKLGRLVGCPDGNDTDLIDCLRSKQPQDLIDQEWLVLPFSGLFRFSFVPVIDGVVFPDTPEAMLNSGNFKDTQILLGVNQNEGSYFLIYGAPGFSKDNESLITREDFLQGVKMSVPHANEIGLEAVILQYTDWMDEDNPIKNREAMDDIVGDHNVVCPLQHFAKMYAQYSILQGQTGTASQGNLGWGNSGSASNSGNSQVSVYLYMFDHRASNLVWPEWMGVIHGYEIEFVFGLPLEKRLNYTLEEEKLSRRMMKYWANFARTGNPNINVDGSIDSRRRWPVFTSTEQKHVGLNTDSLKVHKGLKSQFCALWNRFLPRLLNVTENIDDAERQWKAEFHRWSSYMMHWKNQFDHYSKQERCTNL
T1 sequence (Q08499 whole entry): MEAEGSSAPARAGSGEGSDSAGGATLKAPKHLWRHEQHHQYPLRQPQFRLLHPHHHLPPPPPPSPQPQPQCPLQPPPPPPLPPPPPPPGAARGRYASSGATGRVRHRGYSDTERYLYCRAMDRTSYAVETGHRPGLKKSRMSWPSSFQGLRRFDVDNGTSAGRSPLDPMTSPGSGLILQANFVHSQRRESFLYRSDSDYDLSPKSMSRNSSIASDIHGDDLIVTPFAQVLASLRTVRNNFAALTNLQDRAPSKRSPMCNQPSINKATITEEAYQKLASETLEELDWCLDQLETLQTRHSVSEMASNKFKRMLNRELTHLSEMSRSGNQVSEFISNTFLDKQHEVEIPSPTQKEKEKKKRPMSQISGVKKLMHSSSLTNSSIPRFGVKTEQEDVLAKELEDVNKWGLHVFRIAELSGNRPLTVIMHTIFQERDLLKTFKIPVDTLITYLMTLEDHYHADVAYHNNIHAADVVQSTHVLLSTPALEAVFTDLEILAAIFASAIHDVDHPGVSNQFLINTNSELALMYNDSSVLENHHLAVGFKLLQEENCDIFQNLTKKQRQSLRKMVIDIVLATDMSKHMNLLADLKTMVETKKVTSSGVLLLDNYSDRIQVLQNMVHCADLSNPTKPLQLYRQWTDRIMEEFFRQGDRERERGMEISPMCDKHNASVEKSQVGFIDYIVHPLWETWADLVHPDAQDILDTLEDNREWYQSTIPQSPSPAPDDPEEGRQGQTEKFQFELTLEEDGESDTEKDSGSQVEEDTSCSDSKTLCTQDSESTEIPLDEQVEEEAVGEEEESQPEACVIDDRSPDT
Chain of High affinity cGMP-specific 3',5'-cyclic phosphodiesterase 9A (O76083 whole entry): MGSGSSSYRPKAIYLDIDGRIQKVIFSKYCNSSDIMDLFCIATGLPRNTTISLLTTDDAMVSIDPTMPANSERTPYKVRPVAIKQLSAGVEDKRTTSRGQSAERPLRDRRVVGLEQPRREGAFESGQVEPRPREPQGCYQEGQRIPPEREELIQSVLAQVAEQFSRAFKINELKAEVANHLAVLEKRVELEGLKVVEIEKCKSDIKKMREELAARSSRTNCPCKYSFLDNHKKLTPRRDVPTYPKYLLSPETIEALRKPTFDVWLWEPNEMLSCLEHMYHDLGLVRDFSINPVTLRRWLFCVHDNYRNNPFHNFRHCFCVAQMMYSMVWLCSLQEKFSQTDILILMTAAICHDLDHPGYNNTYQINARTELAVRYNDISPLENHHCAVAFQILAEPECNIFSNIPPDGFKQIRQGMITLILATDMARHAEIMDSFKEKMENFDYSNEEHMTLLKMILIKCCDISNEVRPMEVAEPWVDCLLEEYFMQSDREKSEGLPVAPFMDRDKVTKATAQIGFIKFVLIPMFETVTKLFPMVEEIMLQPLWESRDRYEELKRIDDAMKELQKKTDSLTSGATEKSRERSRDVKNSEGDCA
Chain of cGMP-inhibited 3',5'-cyclic phosphodiesterase 3B (Q13370 whole entry): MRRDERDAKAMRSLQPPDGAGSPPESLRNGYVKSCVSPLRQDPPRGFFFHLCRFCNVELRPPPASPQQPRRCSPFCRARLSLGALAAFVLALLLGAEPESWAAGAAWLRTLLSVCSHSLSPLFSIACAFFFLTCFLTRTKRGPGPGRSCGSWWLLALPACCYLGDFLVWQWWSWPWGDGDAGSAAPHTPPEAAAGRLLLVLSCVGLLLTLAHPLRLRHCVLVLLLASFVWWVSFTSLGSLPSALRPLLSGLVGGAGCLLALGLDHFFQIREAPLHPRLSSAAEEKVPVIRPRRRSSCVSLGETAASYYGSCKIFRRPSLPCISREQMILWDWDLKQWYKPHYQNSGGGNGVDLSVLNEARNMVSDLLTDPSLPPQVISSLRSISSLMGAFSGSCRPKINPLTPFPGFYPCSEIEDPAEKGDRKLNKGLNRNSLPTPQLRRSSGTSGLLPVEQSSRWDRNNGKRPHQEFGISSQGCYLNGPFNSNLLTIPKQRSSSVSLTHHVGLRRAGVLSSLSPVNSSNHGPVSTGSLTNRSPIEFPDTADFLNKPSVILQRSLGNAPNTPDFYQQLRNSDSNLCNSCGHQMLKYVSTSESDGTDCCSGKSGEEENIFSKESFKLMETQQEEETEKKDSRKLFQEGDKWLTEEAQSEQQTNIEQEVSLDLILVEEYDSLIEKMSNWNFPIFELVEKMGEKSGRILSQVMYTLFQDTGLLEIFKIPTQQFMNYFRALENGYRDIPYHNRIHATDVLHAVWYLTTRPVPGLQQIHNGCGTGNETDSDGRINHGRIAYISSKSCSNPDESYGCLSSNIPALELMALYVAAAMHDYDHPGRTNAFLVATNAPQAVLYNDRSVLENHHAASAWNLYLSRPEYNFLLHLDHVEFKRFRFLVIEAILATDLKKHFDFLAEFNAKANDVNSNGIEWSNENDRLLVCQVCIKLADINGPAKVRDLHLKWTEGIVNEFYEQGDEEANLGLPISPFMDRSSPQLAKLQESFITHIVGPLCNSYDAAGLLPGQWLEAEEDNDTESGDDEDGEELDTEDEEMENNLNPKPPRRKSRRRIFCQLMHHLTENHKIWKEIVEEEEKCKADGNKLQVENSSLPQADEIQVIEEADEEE
Chain of High affinity cAMP-specific and IBMX-insensitive 3',5'-cyclic phosphodiesterase 8A (O60658 whole entry): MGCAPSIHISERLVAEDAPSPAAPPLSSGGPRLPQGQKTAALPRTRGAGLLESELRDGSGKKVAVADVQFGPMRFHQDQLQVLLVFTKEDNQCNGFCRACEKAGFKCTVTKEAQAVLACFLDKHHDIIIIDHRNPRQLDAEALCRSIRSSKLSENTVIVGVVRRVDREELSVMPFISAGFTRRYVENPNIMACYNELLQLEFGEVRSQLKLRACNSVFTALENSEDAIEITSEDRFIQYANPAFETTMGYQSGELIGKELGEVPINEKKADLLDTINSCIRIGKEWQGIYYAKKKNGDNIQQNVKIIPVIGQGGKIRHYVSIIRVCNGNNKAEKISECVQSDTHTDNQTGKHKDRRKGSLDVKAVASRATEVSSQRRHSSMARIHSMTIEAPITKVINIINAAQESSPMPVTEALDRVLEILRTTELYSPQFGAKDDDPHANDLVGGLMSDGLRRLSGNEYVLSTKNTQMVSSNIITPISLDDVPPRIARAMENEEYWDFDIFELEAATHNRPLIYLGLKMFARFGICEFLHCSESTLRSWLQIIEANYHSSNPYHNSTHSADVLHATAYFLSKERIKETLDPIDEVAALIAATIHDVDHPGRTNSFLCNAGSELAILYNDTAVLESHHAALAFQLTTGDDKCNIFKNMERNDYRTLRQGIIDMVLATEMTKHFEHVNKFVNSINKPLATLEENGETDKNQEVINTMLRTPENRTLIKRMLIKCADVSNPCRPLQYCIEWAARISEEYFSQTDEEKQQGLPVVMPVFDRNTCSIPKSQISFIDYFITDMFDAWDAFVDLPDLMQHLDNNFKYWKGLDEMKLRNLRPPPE
Chain of High affinity 3',5'-cyclic-AMP phosphodiesterase 7A (Q13946 whole entry): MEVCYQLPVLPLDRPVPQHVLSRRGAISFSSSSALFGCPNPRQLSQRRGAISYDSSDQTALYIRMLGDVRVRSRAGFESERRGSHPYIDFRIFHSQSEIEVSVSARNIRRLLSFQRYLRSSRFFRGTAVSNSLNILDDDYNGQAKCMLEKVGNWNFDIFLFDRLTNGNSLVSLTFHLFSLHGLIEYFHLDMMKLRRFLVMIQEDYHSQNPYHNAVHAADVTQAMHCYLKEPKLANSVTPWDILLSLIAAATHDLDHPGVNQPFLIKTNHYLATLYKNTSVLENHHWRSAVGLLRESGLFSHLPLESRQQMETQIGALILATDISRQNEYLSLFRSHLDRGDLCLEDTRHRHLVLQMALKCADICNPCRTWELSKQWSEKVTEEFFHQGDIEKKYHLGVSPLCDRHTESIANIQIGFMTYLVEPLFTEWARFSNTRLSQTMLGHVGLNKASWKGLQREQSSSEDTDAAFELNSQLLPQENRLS

Regarding `COc1cc2c(cc1OCC1CC1)C(=O)C(CC1CCN(Cc3ccccc3)CC1)C2` (stereo not given), in [1], the inhibition is < 10%. The compound also returned an IC50 in [2] of 0.045 µM.
Take `COc1cc2c(cc1OCC1CC1)C(=O)C(CC1CCNCC1)C2` (stereo not given): the inhibition is 21% in data set [3] and < 10% in data set [1].
Take `COc1cc2c(cc1OCC1CC1)CC(Cc1ccncc1)C2=O` (stereo not given): the inhibition stood at 23% in [3] and 31% in data set [1].
As for `COc1cc2c(cc1OC1CCCC1)C(=O)/C(=C/c1cccnc1)C2`, the inhibition in data set [3] was 56%. In addition, the IC50 in data set [2] is 8.4 µM; in data set [4] it was 4.1 µM.
Consider `COc1cc2c(cc1OCC(C)C)CC(CC1CCN(Cc3ccccc3)CC1)C2=O` (stereo not given), for which the inhibition in [1] is < 10%. Further, the IC50 in [2] amounted to 0.21 µM.
As for `COc1cc2c(cc1OCC(C)C)CC(CC1CCNCC1)C2=O` (stereo not given), the inhibition in [3] and in [1] was < 10% throughout.
As for `COc1cc2c(cc1OC1CCCC1)C(=O)/C(=C/c1ccccn1)C2`, the inhibition amounted to 39% in [3] and 11% in data set [1].
Regarding `COc1cc2c(cc1OCC(C)C)C(=O)C(CC1CCNCC1)C2` (stereo not given), the inhibition was 12% in [3] and < 10% in [1].
Take `COc1cc2c(cc1OC1CCCC1)C(=O)C(Cc1ccccn1)C2` (stereo not given): the inhibition in data set [3] is 11%. Also, the IC50 came to 38.3 µM in [2] and 8.7 µM in data set [4].
Regarding `COc1ccc(CC2Cc3cc(OC)c(OCCN4CCCCC4)cc3C2=O)cc1` (stereo not given), the inhibition in [1] is < 10%. For the same compound, 0.81 µM corresponded to half-maximal inhibition in data set [2] (IC50).
With `COc1ccc(C2CNC(=O)C2)cc1OC1CCCC1` (stereo not given), the result in [5] was Active.
For `COc1cc2c(cc1OC1CCCC1)C(=O)C(CC1CCNCC1)C2` (stereo not given), the figures for the inhibition in data set [3] and in data set [1] were 11% and < 10%, respectively.
In the case of `COc1cc2c(cc1OCC1CC1)CC(CC1CCN(Cc3ccccc3)CC1)C2=O` (stereo not given), the inhibition in data set [1] is < 10%. The compound further had an IC50 in [2] of 0.21 µM.
`COc1cc2c(cc1OC1CCCC1)CC(Cc1ccncc1)C2=O` (stereo not given) returned an inhibition in [3] of 27%. Further, the IC50 in data set [2] was determined as 30.5 µM; in data set [4], 5.3 µM.
`COc1ccc(CC2Cc3cc(OC)c(OCCN4CCCC4)cc3C2=O)cc1` (stereo not given) showed an inhibition in data set [6] of 20%.
`COc1cc2c(cc1OCC(C)C)CC(Cc1ccncc1)C2=O` (stereo not given): the inhibition in data set [3] is 15%. In addition, the IC50 turned out to be 64.3 µM in data set [2] and 4.2 µM in data set [4].
For the compound `COc1cc2c(cc1OC1CCCC1)C(=O)C(Cc1cccnc1)C2` (stereo not given), the figures for the inhibition in data set [3] and in data set [1] were 26% and 34%, respectively. Further, the midpoint of inhibition in data set [4], the IC50, lay at 23 µM.
`COc1cc2c(cc1OCCN1CCCCC1)C(=O)C(Cc1cccnc1)C2` (stereo not given): the IC50 is > 50 µM in data set [7]; > 50 µM in [11]; 0.28 µM in data set [2]; 36.9 µM in data set [12]; 1.88 µM in data set [4]; > 50 µM in data set [14]. Further, the IC50 in data set [16], in [17], in data set [21], in [22] and in [23] was > 50 µM each time. The result in data set [8], in [10] and in data set [19] was Active. Besides, the results for the Activity entry in data set [9], in data set [15] and in data set [18] were “Dde”, “Non-Toxic” and “Non-Toxic”, respectively. The Ratio IC50 in [13] was found to be 19. Besides, in data set [20], the inhibition entry is “Active”.
Consider `COc1cc2c(cc1OC1CCCC1)C(=O)C(CC1CCN(Cc3ccccc3)CC1)C2` (stereo not given), for which, in [1], the inhibition was < 10%. The IC50 in data set [2] is 0.058 µM.
Consider `COc1cc2c(cc1OCCN1CCCC1)C(=O)C(Cc1ccncc1)C2` (stereo not given), for which the inhibition in data set [1] is < 10%. The compound further displayed an IC50 in [2] of 1.08 µM.
As for `COc1cc2c(cc1OCC1CC1)CC(CC1CCNCC1)C2=O` (stereo not given), the inhibition is 25% in data set [3] and < 10% in [1].
On to `COc1cc2c(cc1OC1CCCC1)C/C(=C\c1cccnc1)C2=O`, for which the inhibition is 50% in data set [3] and < 10% in data set [1]. Also, it took 11.7 µM to reach half-maximal inhibition in [2] (IC50).
`COc1cc2c(cc1OCCN1CCCCC1)C(=O)C(Cc1ccncc1)C2` (stereo not given): the IC50 is 0.07 µM in [2] and 16.4 µM in data set [4].
In data set [3], `COc1cc2c(cc1OC1CCCC1)C(=O)C(Cc1ccncc1)C2` (stereo not given) showed an inhibition of 15%. For the same compound, the values for the IC50 in [2] and in data set [4] were 55.9 µM and 3.4 µM, respectively.
On to `COc1cc2c(cc1OCC1CC1)C(=O)C(Cc1ccncc1)C2` (stereo not given), for which the inhibition in data set [3] stood at 25%. Moreover, the results for the IC50 in data set [2] and in [4] were 35.9 µM and 6.3 µM, respectively.
On to `COc1cc2c(cc1OCC(C)C)C(=O)C(Cc1ccncc1)C2` (stereo not given), for which the inhibition in data set [3] was 14%; in data set [1] it was 34%.
With `COc1cc2c(cc1OCC(C)C)C(=O)C(CC1CCN(Cc3ccccc3)CC1)C2` (stereo not given), in data set [1], the inhibition is < 10%. In addition, in [2], the IC50 worked out at 0.5 µM.
On to `COc1cc2c(cc1OC1CCCC1)CC(CC1CCNCC1)C2=O` (stereo not given), for which the inhibition is 19% in data set [3] and < 10% in [1].
Take `COc1cc2c(cc1OC)C(=O)C(CC1CCN(Cc3ccccc3)CC1)C2` (stereo not given) [DONEPEZIL]: the outcome in [10], in data set [5], in data set [24] and in data set [19] was Active. For the same compound, the IC50 in [4] was 36 µM. In addition, the inhibition result in data set [20] is “Active”.
Regarding `COc1cc2c(cc1OC1CCCC1)CC(CC1CCN(Cc3ccccc3)CC1)C2=O` (stereo not given), the inhibition in data set [1] is < 10%. In data set [2], the IC50 came out at 0.21 µM.
In turn, `COc1cc2c(cc1OC1CCCC1)C(=O)/C(=C/c1ccncc1)C2` registered an inhibition in data set [3] of 51%. The IC50 in [2] came out at 11.4 µM; in data set [4], 3.1 µM.
